17 compounds from patent publication EP0540143B1, “Compounds and methods for inhibition of HIV and related viruses” (priority 1991, dated 1993) can be followed below.

One test has as its target recombinant HIV-RT (Human immunodeficiency virus type 1 group M subtype B, UniProt P04585). In words: Test I (HIVRT (rAdt)), direct inhibition of recombinant HIV-RT. Format: biochemical. As for the experimental part:
The compounds were tested for direct inhibitory activity on HIV-RT in a volume of […] recombinant HIV-RT (diluted in virus disruption buffer to give 200.000 cpm).
100 mM Tris-HCl pH 7.6, 100 mM KCl, 4 mM MgCl2, 4 mM DTT, 275 mg/ml BSA, 0.5 mg (rA)n(dT)12-18 and 0.3 mM ^3H- dTTP (specific activity […]). After 60 minutess of incubation 40 ml in duplicate were spotted on paper discs and washed in 5% TCA. After rinsing the paper discs in ethanol they were dried and counted in scintillation fluid.

Another test deals with HIV virus. The test can be described thus: Test A (XTT), MT4 cells infected with HIV. Format: cell-based. To be noted: for inhibition at 0.1 µg/mL / inhibition at 1 µg/mL / inhibition at 10 µg/mL / inhibition at 100 µg/mL: Human immunodeficiency virus 1, MT4, Test A; for % inhibition: Test A. The procedure:
Tests A, B, C, and D (XTT)
MT4 cells in a medium of RPMI 1640, 5% FCS, penicillin/streptomycin are adjusted to 2x10^5 cells/ml and seeded into microplates (96 wells/plate) 100 µl cell suspension/well giving 2x10^4 cells/well. The compound to be tested is made into a 10 mg/ml mixture in DMSO and stored at -20°C. The compound in DMSO is diluted with medium containing 10% DMSO in a 10-fold dilution series to give 1 mg/ml, 10 mg/ml, and […] solutions. Further dilutions to 400, 40, 4 and 0.4 mg/ml are made in medium containing microplates. Fifty µl of the 400, 40, and 4 mg/ml are transferred to the cell-containing microplates with a multi-channel pipette (final concentration: 100, 10, and 1 mg/ml). Finally, 50 µl of virus suspension is added to each well (with a repetitive "Eppendorf" multipipett). Each plate has at least six wells with the following: [Test A: HIV virus; Test B: HIV(II) virus; Test C: SIV virus; Test D: No virus]; with no drug (virus control) and six wells without virus (medium control). The plate is put into a plastic bag and incubated for six days in CO2 atmosphere. To each well in the plate is added 50 µl of XTT ((2,3-bis[2-methoxy-4-nitro-5-sulfophenyl]-5-[(phenylamino)carbonyl]-2H-tetrazolium hydroxide), (1 mg/ml 0.01-0.02 mM N-metyl-phenazonium methosulfate). After six hours of incubation in CO2 atmosphere the plates are covered with adhesive plate sealers and gently mixed on a vortex. Optical densities are determined at a wavelength of 450 nm and a reference wavelength of 650 nm. The percent reduction of cytotoxocity caused by the virus infection is calculated as follows: (OD450 compound - OD450 inf cells)/(OD450 uninf cells - OD450 inf cells)x 100 [formula]
On the technique in general: Formazan colour is commonly taken as a measure of viable cells.

The structures appear in SMILES notation.

As for `CC(C)(C)c1csc(NC(=S)NCCc2ccccc2)n1`, the inhibition at 0.1 µg/mL was 8% on recombinant HIV-RT and 0% in the test with HIV virus. For the same compound, the inhibition at 1 µg/mL was determined as 8% on recombinant HIV-RT and 0% in the test with HIV virus (1 µg/ml). For the same compound, the results for the inhibition at 10 µg/mL at recombinant HIV-RT and in the test on HIV virus (10 µg/ml) were 15% and 9%, respectively. This compound also gave an inhibition at 100 µg/mL in the test with HIV virus (100 µg/ml) of 0%.

Take `COC(=O)C(=O)c1csc(NC(=S)NCCc2ccccc2)n1`: the inhibition at 0.1 µg/mL on recombinant HIV-RT was 1%. The figures for the inhibition at 1 µg/mL at recombinant HIV-RT and in the test with HIV virus (1 µg/ml) were 1% and 0%, respectively. Besides, the inhibition at 10 µg/mL at recombinant HIV-RT came to 13%; in the test with HIV virus (10 µg/ml), 0%. Also, the inhibition at 100 µg/mL in the test on HIV virus (100 µg/ml) was determined as 0%.

As for `S=C(NCCc1ccccc1)Nc1nc(-c2ccc(Cl)cc2)cs1`, at recombinant HIV-RT, the inhibition at 0.1 µg/mL is 1%, the inhibition at 1 µg/mL was determined as 1% and the inhibition at 10 µg/mL came out at 1%. The compound further returned an inhibition at 1 µg/mL with HIV virus (1 µg/ml) of 0%. Further, at 10 µg/mL the inhibition in the test on HIV virus (10 µg/ml) was 0%. Further, in the test with HIV virus (100 µg/ml), 100 µg/mL produced 18% inhibition.

With `S=C(NCCc1ccccc1)Nc1nc(-c2ccncc2)cs1`, in the test on HIV virus (1 µg/ml), the inhibition at 1 µg/mL came to 32% and the “% inhibition” value is 46%. In addition, in the test on HIV virus (10 µg/ml), testing at 10 µg/mL gave an inhibition of 51% and the “% inhibition” value was 65%.

In the test on HIV virus, `Fc1ccc(NC(=S)NCCc2ccccc2)cc1` had an inhibition at 0.1 µg/mL of 0%. For the same compound, the inhibition at 1 µg/mL in the test with HIV virus (1 µg/ml) was 5%. Further, in the test on HIV virus (10 µg/ml), the inhibition at 10 µg/mL turned out to be 41% and the “% inhibition” value was 32%. In the test on HIV virus (100 µg/ml), 100 µg/mL produced 0% inhibition.

For the compound `NS(=O)(=O)c1ccc(NC(=S)NCCc2ccccc2)cc1`, the inhibition at 0.1 µg/mL in the test with HIV virus is 3%. The inhibition at 1 µg/mL with HIV virus (1 µg/ml) amounted to 0%. For the same compound, the inhibition at 10 µg/mL in the test on HIV virus (10 µg/ml) worked out at 22%.

On to `CCCCOC(=O)c1ccc(NC(=S)NCCc2ccccc2)cc1`, for which the inhibition at 0.1 µg/mL in the test on HIV virus was 0%. Further, testing at 1 µg/mL in the test with HIV virus (1 µg/ml) gave an inhibition of 0%. This compound also showed an inhibition at 10 µg/mL in the test on HIV virus (10 µg/ml) of 0%.

For `S=C(NCCc1ccccc1)Nc1ccccn1`, in the test with HIV virus (1 µg/ml), the inhibition at 1 µg/mL was 0%. This compound also returned an inhibition at 10 µg/mL with HIV virus (10 µg/ml) of 2%. Moreover, in the test on HIV virus (100 µg/ml), the inhibition at 100 µg/mL stood at 6%.

With `S=C(NCCc1ccccc1)Nc1ncco1`, at 0.1 µg/mL the inhibition in the test with HIV virus was 0%. In addition, the inhibition at 1 µg/mL in the test on HIV virus (1 µg/ml) stood at 0%. The compound further registered an inhibition at 10 µg/mL in the test with HIV virus (10 µg/ml) of 0%.

In the case of `S=C(NCCc1ccccc1)Nc1cnc2ccccc2c1`, the inhibition at 1 µg/mL in the test on HIV virus (1 µg/ml) came to 0%. For the same compound, in the test on HIV virus (10 µg/ml), 10 µg/mL produced 71% inhibition. Moreover, testing at 100 µg/mL in the test on HIV virus (100 µg/ml) gave an inhibition of 0%.

For `S=C(NCCc1ccccc1)NCc1ccco1`, the values for the inhibition at 0.1 µg/mL on recombinant HIV-RT and with HIV virus were 7% and 3%, respectively. Besides, the inhibition at 1 µg/mL on recombinant HIV-RT is 12%; with HIV virus (1 µg/ml) it was 10%. The inhibition at 10 µg/mL on recombinant HIV-RT worked out at 10%; in the test with HIV virus (10 µg/ml) it was 7%.

In turn, `S=C(NCCc1ccccc1)N1CCCc2ccccc21` gave an inhibition at 1 µg/mL in the test with HIV virus (1 µg/ml) of 0%. In the test with HIV virus (10 µg/ml), the inhibition at 10 µg/mL was found to be 0%.

For the compound `S=C(NCCc1ccccc1)N1CCCCC1`, testing at 0.1 µg/mL with HIV virus gave an inhibition of 0%. The same compound yielded an inhibition at 1 µg/mL in the test with HIV virus (1 µg/ml) of 0%. The same compound yielded an inhibition at 10 µg/mL with HIV virus (10 µg/ml) of 0%.

In turn, `CN1CCN(C(=S)NCCc2ccccc2)CC1` came in with an inhibition at 1 µg/mL in the test on HIV virus (1 µg/ml) of 0%. Also, the inhibition at 10 µg/mL in the test with HIV virus (10 µg/ml) came to 0%. Besides, in the test with HIV virus (100 µg/ml), the inhibition at 100 µg/mL is 0%.

Compound `S=C(NCCc1ccccc1)N1CCOCC1` displayed an inhibition at 0.1 µg/mL in the test on HIV virus of 0%. This compound also had an inhibition at 1 µg/mL in the test on HIV virus (1 µg/ml) of 13%. In the test on HIV virus (10 µg/ml), this compound yielded an inhibition at 10 µg/mL of 9%.

On to `COc1ccc(CCNC(=S)Nc2nccs2)cc1OC`, for which, in the test with HIV virus (10 µg/ml), the inhibition at 10 µg/mL was found to be 54% and the “% inhibition” value came out at 58%. The same compound yielded an inhibition at 100 µg/mL in the test on HIV virus (100 µg/ml) of 0%.

`S=C(NCCc1ccc(Cl)cc1)Nc1nccs1`: in the test on HIV virus (10 µg/ml), the inhibition at 10 µg/mL came to 79% and the “% inhibition” value was found to be 93%. Moreover, in the test on HIV virus (100 µg/ml), the inhibition at 100 µg/mL was found to be 73% and the “% inhibition” value worked out at 71%.

In general, inhibition refers to the percentage by which the read-out fell short of the control. For orientation: % inhibition means how much of the control response was suppressed. Higher therefore signals a response far below the control.
